Source: PMC7077720, “Improvement of Peptide Affinity and Stability by Complexing to Cyclodextrin-Grafted Ammonium Chitosan” (Polymers, 2020)
Where a SMILES comes first, the peptide text is derived from it. [ ]: non-standard residue; d: D form.

How the values were obtained:
[1] = Complex association constant (Benesi–Hildebrand method), fluorescence spectrometry; type: binding; conditions: rounded value quoted in text; technique not named at the place
Description: Complex association constant (Ka) was determined by spectrometric titration based on the Benesi–Hildebrand method and performed both by UV-VIS and fluorescence spectrometry. Two sets of dilutions were prepared (Tables S2–S5, Supplementary material). In the case of UV spectrometry, 275 μM DAL was kept, whereas MCD concentrations varied, either as MCD alone or as conjugated (N^+-rCh-MCD). The solutions were prepared and analyzed after being equilibrated for 1 h at room temperature. UV spectra in the range 220–325 nm were collected, and the intensity of absorbance at 282 nm was normalized on the correspondent value at 247 nm. Diversely, for fluorescence spectroscopy evaluations, DAL concentration was kept at 70 μM, and samples were analyzed by using a PerkinElmer LS 45 fluorimeter, with excitation λ set at 270 nm and the emission spectrum collected between 340 and 270 nm. The variation of fluorescence intensity was evaluated at 304 nm, and it was normalized on 285 nm. […]
The determination of the association constant (Ka) for complexes of DAL/MCD and of DAL/N^+-rCh-MCD was performed both by UV and fluorescence spectrometry. Both techniques exploited the gradual variation of DAL absorbance or fluorescence in the presence of increasing amounts of host agent. […]

[2] = system: Caco-2 monolayers; experiment: In vitro protection from enzymatic degradation on Caco-2 monolayers; type: in vitro ADME, human; conditions: DAL 50 μg/mL applied apically in HBSS, 37 °C, HPLC, three experiments
Description: A Caco-2 monolayer was obtained by cell seeding (10^5 cells/well) on a polycarbonate membrane filter (pore size 0.4 μm, area 1.12 cm^2) in Corning Transwell, 12-well plates (Sigma-Aldrich, Saint Louis, MO, USA). Thereafter, 0.5 and 1.5 mL of culture medium was added to apical and basolateral compartments of the transwell inserts, respectively; the culture medium was replaced every two days for 24 days. As a rule, the experiments were performed with Caco-2 monolayers that have been grown on filter inserts for 21–29 days. By day 21, the monolayers have become differentiated with regard to the expression of many transport proteins, enzymes, and brush border hydrolases. The TransEpithelial Electrical Resistance (TEER, Ωcm^2) across the Caco-2 monolayer was determined by measuring the potential difference between the apical and basolateral sides of the transwell using the Millicell-ERS (Millipore, Milano, Italy). TEER was measured prior to each experiment to ensure the confluence of the monolayers, during transport studies (every 30 min), and at 24 h from the samples’ removal to assess monolayer stability recovery. Experiments were performed by using DAL-containing samples, which had either DAL alone or the presence of polymers and cyclodextrin. […] At the end of the experiment (3 h), the apical chambers media were collected and analyzed by HPLC for DAL content evaluation.

[3] = molecular target: T1, α-chymotrypsin (CHT) (Bos taurus, UniProt P00766); experiment: Stability under enzymatic hydrolysis by α-chymotrypsin, residual DAL by HPLC; type: in vitro ADME; conditions: 37 °C
T1 construct: purchased Sigma-Aldrich (St. Louis, MO, USA)
Description: GPC (Gel permeation chromatography) and HPLC analyses were carried out with a Perkin-Elmer instrument (Perkin-Elmer, Waltham, MA, USA), consisting of a Series 200 LC-290 AT pump, Rheodyne injector with a loop of 20 μL, UV-VIS SPD–6 AV detector, and Turbochrom Navigator software (Turbochrom 6.1, Perkin-Elmer, Waltham, MA, USA ). For GPC analyses, the standard pullulans were employed; the stationary phase was an X-stream H2O Mixed Bed 50 × 4.6 mm column, the mobile phase was acetate buffer 0.5 M (pH = 2.9), and the wavelength of the detector was set to 237 nm. For HPLC, the suitable mobile phase result was H2O:CH3CN = 70:30, the column was a C18 Aquapore OD-300 (Perkin-Elmer, Waltham, MA, USA) 7 µm 4.6 × 250 mm, and the wavelength of the detector was set to 227 nm.
Stock solutions of dalargin (1 mg/mL) either alone or as a 1:1 complex with MCD or polymers were mixed with α-chymotrypsin (0.36 mg/mL) solutions to obtain 0.50 mg/mL and 0.18 mg/mL (corresponding to 7.2 UI/mL) final concentrations, respectively. […] All samples were analyzed after 5 min by interrupting the digestion with temperature shock (4 °C) and extensive dilution (1:20 with cold HPLC mobile phase). Residual DAL was expressed as the percentage of initial DAL as detected by the HPLC method. […]

[4] = molecular target: T1, α-chymotrypsin (CHT); experiment: Enzymatic hydrolysis of DAL by α-chymotrypsin followed by 1H NMR; type: in vitro ADME
Description: The same DAL/enzyme ratio and concentrations of components selected for HPLC were used in NMR analysis at 37 °C through the entire digestion process. DAL and α-chymotrypsin stock solutions were prepared in phosphate buffer (pH = 6.8) and mixed directly into the NMR tube containing predissolved polymers at 40 °C for 2 h.
By using the same DAL/CHT molar ratio selected for HPLC analysis, low and high frequency NMR spectral regions of dalargin, pure (Figure 7a) and in presence of CHT (Figure 7b, c), were monitored over time at 37 °C. In the binary mixture DAL/CHT, a rapid decrease of the original dalargin signals was observed already after 5 min with the simultaneous formation of new peaks, which was attributable to the digestion products. […] In order to obtain a quantitative parameter, we refer to the lifetime of the drug (tf), the specific time in which non-degraded DAL reached 6% with respect to the hydrolyzed products. If the mixture is maintained at room temperature (25 °C), the tf of DAL is extended up to 45 min, owing to a reduced activity of the enzyme.

[5] = Stability of pure DAL in water by 1H NMR; type: physicochemical; conditions: 37 °C, several days, 1H NMR chemical shifts and integrated areas

Molecule	Association constant of DAL with host (Ka) [1] [M⁻¹]	DAL content in the apical chamber after 3 h of incubation ([2]; Caco-2 monolayers (Transwell, 21–29 days)) [µg/mL]	residual DAL in the apical chamber after 3 h of incubation ([2]; Caco-2 monolayers)	reduction of the initial DAL content after 5 min of α-chymotrypsin ([3]; freshly prepared solutions, DAL 0.50 mg/mL alone or 1:1 with host, CHT 0.18 mg/mL (7.2 UI/mL), phosphate buffer pH 6.8, 0.4 M, HPLC-UV 227 nm, three independent experiments) [%]	stability of DAL to α-chymotrypsin, lyophilized samples redispersed in buffer ([3]; lyophilized DAL alone or 1:1 complex redispersed in PB, CHT 0.18 mg/mL, pH 6.8, 5 min, HPLC)	lifetime of the drug tf at room temperature ([4]; DAL/CHT mixture kept at 25 °C, tf = time at which non-degraded DAL reached 6%, 1H NMR) [min]	time after which digestion was almost complete ([4]; binary mixture DAL/CHT, no host, 1H NMR integrated areas, 37 °C, phosphate buffer pH 6.8, DAL 0.68 mM) [min]	stability of pure DAL in water [5]
2-methyl-β-cyclodextrin [MCD]	120	–	–	–	–	–	–	–
CC(C)C[C@H](NC(=O)[C@H](Cc1ccccc1)NC(=O)CNC(=O)[C@@H](C)NC(=O)[C@@H](N)Cc1ccc(O)cc1)C(=O)N[C@@H](CCCNC(=N)N)C(=O)O [DAL, (D-Ala2)-Leu-Enkephalin-Arg] (H-Y[dA]GFLR-OH)	–	4.1 to 7.3	8%–15%	80	rapidly degraded	45	14	stable
